Results taken from US9321764B2, “Dihydro-pyrrolopyridinone inhibitors” (AbbVie Inc., priority 2013, dated 2016).

Assays:
[1] = test system: breast cancer cell line MX-1; experiment: MX-1 cell line proliferation assay; format: cell-based; details: Homo sapiens, MX1, 72 h, MX-1 cells, 3-day proliferation assay, Cell Titer Glo; read-out: Cellular proliferation EC50
Method: The impact of compounds of the Examples on cancer cell proliferation was determined using the breast cancer cell line MX-1 (ATCC) in a 3-day proliferation assay and the data are reported in Table 1. MX-1 cells were maintained in RPMI 1640 medium (Sigma) supplemented with 10% FBS at 37° C. and an atmosphere of 5% CO2. For compound testing, MX-1 cells were plated in 96-well black bottom plates at a density of 5000 cells/well in 90 μL of culture media and incubated at 37° overnight to allow cell adhesion and spreading. Compound dilution series were prepared in DMSO via a 3-fold serial dilution from 3 mM to 0.1 μM. The DMSO dilution series were then diluted 1:100 in phosphate buffered saline, and 10 μL of the resulted solution were added to the appropriate wells of the MX-1 cell plate. The final compound concentrations in the wells were 3, 1, 0.3, 0.1, 0.03, 0.01, 0.003, 0.001, 0.0003 and 0.0001 μM.
Luminescence readings from the Cell Titer Glo assay were normalized to the DMSO treated cells and analyzed using the GraphPad Prism software with sigmoidal curve fitting to obtain EC50s. The minimum significant ratio (MSR) was determined to evaluate assay reproducibility (Eastwood et al., (2006) J Biomol Screen, 11: 253-261).

BRD4 (BDII_E352-M457) = molecular target: T1, BRD4 (BDII_E352-M457) (Homo sapiens, UniProt O60885); experiment: TR-FRET bromodomain binding assay, second bromodomain of BRD4; details: His-tagged BD2, 30 nM Alexa647 probe; TR-FRET protocol A-E given per row
T1 construct: proliferation; Protocol; made in house
In short: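 His-tagged BRD4 BD2 ([…]) competed against an Alexa647-labelled BET-inhibitor probe in TR-FRET. Buffer was 20 mM sodium phosphate pH 6.0, 50 mM NaCl, 1 mM EDTA, 0.01% Triton X-100, 1 mM DTT, with method D DMSO series of 2.5 mM–800 nM (stock range). IC50 from 4-parameter fit, Ki from probe Kd and concentration.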

BRD4 (BDI_K57-E168) = molecular target: T2, BRD4 (BDI_K57-E168) (Homo sapiens, UniProt O60885); experiment: TR-FRET bromodomain binding assay, first bromodomain of BRD4; details: His-tagged BD1, 100 nM Alexa647 probe; TR-FRET protocol A-E given per row
T2 construct: BD1: amino acids K57-E168; made in house
In short: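 Ki values come from IC50s (4-parameter logistic) corrected for probe Kd and concentration, normalised to no-compound and 1 μM unlabelled probe controls. Probe displacement by TR-FRET used 8 nM BD1 (K57-E168), 100 nM Alexa647 probe, 1 nM Eu-anti-His, 20 mM phosphate pH 6.0, 2% DMSO, 1 h, room temperature.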

Row | EC50 [1] [nM] | Ki (BRD4 (BDII_E352-M457)) [nM] | Ki (BRD4 (BDI_K57-E168)) [nM] | SMILES
1 | 506 | 1340 | 73 | CCS(=O)(=O)Nc1ccc(OCC2CC2)c(-c2cn(C)c3c(=O)[nH]ccc23)c1C [Example 14, N-[4-(cyclopropylmethoxy)-2-methyl-3-(1-methyl-7-oxo-6,7-dihydro-1H-pyrrolo[2,3-c]pyridin-3-yl)phenyl]ethanesulfonamide]
2 | 176 | 80 | 16 | Cn1cc(-c2cc(S(C)(=O)=O)ccc2Oc2ccc(F)c(F)c2)c2cc[nH]c(=O)c21 [Example 19, 3-[2-(3,4-difluorophenoxy)-5-(methylsulfonyl)phenyl]-1-methyl-1,6-dihydro-7H-pyrrolo[2,3-c]pyridin-7-one]
3 | 181 | 165 | 18 | Cn1cc(-c2cc(S(C)(=O)=O)ccc2OCC2CC2)c2cc[nH]c(=O)c21 [Example 20, 3-[2-(cyclopropylmethoxy)-5-(methylsulfonyl)phenyl]-1-methyl-1,6-dihydro-7H-pyrrolo[2,3-c]pyridin-7-one]
4 | 384 | 120 | 15 | Cn1cc(-c2cc(S(C)(=O)=O)ccc2OC2CCOC2)c2cc[nH]c(=O)c21 (stereo not drawn) [Example 22, 1-methyl-3-[5-(methylsulfonyl)-2-(tetrahydrofuran-3-yloxy)phenyl]-1,6-dihydro-7H-pyrrolo[2,3-c]pyridin-7-one]
5 | 256 | 117 | 13 | Cn1cc(-c2cc(S(C)(=O)=O)ccc2OCC2CCOC2)c2cc[nH]c(=O)c21 (stereo not drawn) [Example 23, 1-methyl-3-[5-(methylsulfonyl)-2-(tetrahydrofuran-3-ylmethoxy)phenyl]-1,6-dihydro-7H-pyrrolo[2,3-c]pyridin-7-one]
6 | 231 | 89 | 17 | Cn1cc(-c2cc(S(C)(=O)=O)ccc2OC2CCOCC2)c2cc[nH]c(=O)c21 [Example 24, 1-methyl-3-[5-(methylsulfonyl)-2-(tetrahydro-2H-pyran-4-yloxy)phenyl]-1,6-dihydro-7H-pyrrolo[2,3-c]pyridin-7-one]
7 | 123 | 60 | 7 | Cn1cc(-c2cc(S(C)(=O)=O)ccc2OC2CCCOC2)c2cc[nH]c(=O)c21 (stereo not drawn) [Example 26, 1-methyl-3-[5-(methylsulfonyl)-2-(tetrahydro-2H-pyran-3-yloxy)phenyl]-1,6-dihydro-7H-pyrrolo[2,3-c]pyridin-7-one]
8 | 176 | 32 | 8 | Cn1cc(-c2cc(S(C)(=O)=O)ccc2OCC(C)(C)C)c2cc[nH]c(=O)c21 [Example 27, 3-[2-(2,2-dimethylpropoxy)-5-(methylsulfonyl)phenyl]-1-methyl-1,6-dihydro-7H-pyrrolo[2,3-c]pyridin-7-one]
9 | 129 | 53 | 9.3 | Cn1cc(-c2cc(S(C)(=O)=O)ccc2OCC2CCC2)c2cc[nH]c(=O)c21 [Example 28, 3-[2-(cyclobutylmethoxy)-5-(methylsulfonyl)phenyl]-1-methyl-1,6-dihydro-7H-pyrrolo[2,3-c]pyridin-7-one]
10 | 191 | 89 | 12 | Cn1cc(-c2cc(S(C)(=O)=O)ccc2OCC2(C)CC2)c2cc[nH]c(=O)c21 [Example 29, 1-methyl-3-{2-[(1-methylcyclopropyl)methoxy]-5-(methylsulfonyl)phenyl}-1,6-dihydro-7H-pyrrolo[2,3-c]pyridin-7-one]
11 | > 3000 | 312 | 45 | Cn1cc(-c2cc(S(C)(=O)=O)ccc2OCC2COC2)c2cc[nH]c(=O)c21 [Example 30, 1-methyl-3-[5-(methylsulfonyl)-2-(oxetan-3-ylmethoxy)phenyl]-1,6-dihydro-7H-pyrrolo[2,3-c]pyridin-7-one]
12 | 398 | 87 | 21 | Cn1cc(-c2cc(S(C)(=O)=O)ccc2OCC2CCOCC2)c2cc[nH]c(=O)c21 [Example 31, 1-methyl-3-[5-(methylsulfonyl)-2-(tetrahydro-2H-pyran-4-ylmethoxy)phenyl]-1,6-dihydro-7H-pyrrolo[2,3-c]pyridin-7-one]
13 | 716 | 274 | 34 | Cn1cc(-c2cc(S(C)(=O)=O)ccc2O[C@H]2CC[C@@H](O)CC2)c2cc[nH]c(=O)c21 [Example 33, 3-{2-[(cis-4-hydroxycyclohexyl)oxy]-5-(methylsulfonyl)phenyl}-1-methyl-1,6-dihydro-7H-pyrrolo[2,3-c]pyridin-7-one]
14 | 95 | 29 | 1.6 | Cn1cc(-c2cc(S(C)(=O)=O)ccc2O[C@H]2CC[C@H](O)CC2)c2cc[nH]c(=O)c21 [Example 34, 3-{2-[(trans-4-hydroxycyclohexyl)oxy]-5-(methylsulfonyl)phenyl}-1-methyl-1,6-dihydro-7H-pyrrolo[2,3-c]pyridin-7-one]
15 | 403 | 406 | 63 | Cn1cc(-c2cc(S(C)(=O)=O)ccc2OCC2CCC(F)(F)CC2)c2cc[nH]c(=O)c21 [Example 41, 3-{2-[(4,4-difluorocyclohexyl)methoxy]-5-(methylsulfonyl)phenyl}-1-methyl-1,6-dihydro-7H-pyrrolo[2,3-c]pyridin-7-one]
16 | 221 | 79 | 13 | Cn1cc(-c2cc(S(C)(=O)=O)ccc2OCC2CC2(F)F)c2cc[nH]c(=O)c21 (stereo not drawn) [Example 42, 3-{2-[(2,2-difluorocyclopropyl)methoxy]-5-(methylsulfonyl)phenyl}-1-methyl-1,6-dihydro-7H-pyrrolo[2,3-c]pyridin-7-one]
17 | 136 | 89 | 14 | Cn1cc(-c2cc(S(C)(=O)=O)ccc2NCC2CC2)c2cc[nH]c(=O)c21 [Example 44, 3-{2-[(cyclopropylmethyl)amino]-5-(methylsulfonyl)phenyl}-1-methyl-1,6-dihydro-7H-pyrrolo[2,3-c]pyridin-7-one]
18 | 279 | 70 | 37 | CN(CC1CC1)c1ccc(S(C)(=O)=O)cc1-c1cn(C)c2c(=O)[nH]ccc12 [Example 45, 3-{2-[(cyclopropylmethyl)(methyl)amino]-5-(methylsulfonyl)phenyl}-1-methyl-1,6-dihydro-7H-pyrrolo[2,3-c]pyridin-7-one]
19 | 479 | 1090 | 205 | Cn1cc(-c2cc(S(C)(=O)=O)ccc2NCc2ccc(C#N)cc2)c2cc[nH]c(=O)c21 [Example 46, 4-({[2-(1-methyl-7-oxo-6,7-dihydro-1H-pyrrolo[2,3-c]pyridin-3-yl)-4-(methylsulfonyl)phenyl]amino}methyl)benzonitrile]
20 | 114 | 40 | 14 | CCS(=O)(=O)c1ccc(Oc2ccc(Cl)cc2)c(-c2cn(C)c3c(=O)[nH]ccc23)c1 [Example 48, 3-[2-(4-chlorophenoxy)-5-(ethylsulfonyl)phenyl]-1-methyl-1,6-dihydro-7H-pyrrolo[2,3-c]pyridin-7-one]
21 | 52 | 24 | 13 | CCS(=O)(=O)c1ccc(Oc2ccc(F)cc2F)c(-c2cn(C)c3c(=O)[nH]ccc23)c1 [Example 49, 3-[2-(2,4-difluorophenoxy)-5-(ethylsulfonyl)phenyl]-1-methyl-1,6-dihydro-7H-pyrrolo[2,3-c]pyridin-7-one]
22 | 201 | 62 | 47 | Cn1cc(-c2cc(S(N)(=O)=O)ccc2Oc2ccc(F)cc2F)c2cc[nH]c(=O)c21 [Example 51, 4-(2,4-difluorophenoxy)-3-(1-methyl-7-oxo-6,7-dihydro-1H-pyrrolo[2,3-c]pyridin-3-yl)benzenesulfonamide]
23 | 21 | 26 | 3.4 | CCS(=O)(=O)C(C)(C)c1ccc(Oc2ccc(F)cc2F)c(-c2cn(C)c3c(=O)[nH]ccc23)c1 [Example 54, 3-{2-(2,4-difluorophenoxy)-5-[2-(ethylsulfonyl)propan-2-yl]phenyl}-1-methyl-1,6-dihydro-7H-pyrrolo[2,3-c]pyridin-7-one]

Row | SMILES | EC50 [1] [nM] | Ki (BRD4 (BDII_E352-M457)) [nM] | Ki (BRD4 (BDI_K57-E168)) [nM]
24 | Cn1cc(-c2cc(S(C)(=O)=O)ccc2OCCC(C)(C)C)c2cc[nH]c(=O)c21 [Example 40, 3-[2-(3,3-dimethylbutoxy)-5-(methylsulfonyl)phenyl]-1-methyl-1,6-dihydro-7H-pyrrolo[2,3-c]pyridin-7-one] | 87 | 64 | 23
